Data on 14 compounds can be found in patent US20230099344A1, “COMPOUNDS AND METHODS FOR THE TARGETED DEGRADATION OF IRAK-4” (Arvinas Operations, Inc., priority 2021, published 2023).

Format in all cases: cell-based
In assay [1] the test system is IL6. The assay is described as follows: R848 stimulated IL6 inhibition assay in PBMC. The conditions noted are these: PBMC, human PBMCs, R848 stimulation, compound overnight, IL6 by MSD after 24 hrs; for Dmax: Homo sapiens, 24 h, read-out: R848 stim IL6 inhibition Dmax; for IC50: read-out: R848 stim IL6 inhibition IC50. Summed up:
(§1)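 Human PBMC at 2.0×10^6 cells/mL were pre-treated with compound overnight, then stimulated with IL-1β, LPS or R848, each at the donor-specific EC50 concentration. After 24 hrs, supernatant IL6 and/or IL8 was measured by MSD.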

The target of a further assay is T1, IRAK-4 (Homo sapiens, UniProt Q9NWZ3).
T1 sequence (Q9NWZ3 1-460): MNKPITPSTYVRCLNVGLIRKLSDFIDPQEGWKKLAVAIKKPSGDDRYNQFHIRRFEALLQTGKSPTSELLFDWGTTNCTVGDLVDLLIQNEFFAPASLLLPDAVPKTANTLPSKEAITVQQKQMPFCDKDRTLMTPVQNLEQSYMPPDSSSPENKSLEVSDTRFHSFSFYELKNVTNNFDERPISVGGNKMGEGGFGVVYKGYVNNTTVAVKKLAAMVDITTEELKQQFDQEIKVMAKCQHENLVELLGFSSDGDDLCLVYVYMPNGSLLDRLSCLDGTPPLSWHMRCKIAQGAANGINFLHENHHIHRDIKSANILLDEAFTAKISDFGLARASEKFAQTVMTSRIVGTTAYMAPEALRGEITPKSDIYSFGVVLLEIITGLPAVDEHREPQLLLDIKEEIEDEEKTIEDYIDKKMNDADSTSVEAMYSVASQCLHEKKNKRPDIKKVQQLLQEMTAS
As to the kind of experiment: IRAK-4 ELISA, PBMC degradation. The following applies: treated overnight. Set-up: endogenous in cells; host or cells: PBMC. Summed up:
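Readout: IRAK-4 protein level in cell lysate, sandwich ELISA. Cells: OCI-Ly10 at 1×10^6/ml or PBMC at 2×10^6/ml, compound added same day, overnight incubation.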
Background: An ELISA detects its analyte on a solid surface through an enzyme-linked reagent.

Assay [2] has as its system IL6. The assay is described as follows: LPS stimulated IL6 inhibition assay in PBMC. The following applies: Homo sapiens, PBMC, 24 h, human PBMCs, LPS stimulation, compound overnight, IL6 by MSD after 24 hrs; for Dmax: read-out: LPS Stim IL6 inhibition Dmax; for IC50: read-out: LPS stim IL6 inhibition IC50. Summed up:
as §1

As usually defined, the IC50 is the point on the concentration scale where inhibition reaches its midpoint. What is called DC50 is the concentration at which degradation of the target reaches its halfway point.

Turning to `CC(C)Oc1cc2c(cc1NC(=O)c1cnn3cccnc13)CN([C@H]1CC[C@H](N(C)CC3(F)CN(c4ccc5c(c4)C(=O)N(C4CCC(=O)NC4=O)C5=O)C3)CC1)C2=O` (some centres unmarked) [Example 365], in the assay on IL6 [1], the Dmax is at least 90% and the half-inhibitory concentration (IC50) is 0.01 to 0.05 µM. Also, on IRAK-4, the DC50 was in the range of 0.001 to 0.005 µM, the Dmax was at least 90% and the “PBMC DC90” value is on record as “A (A represents a DC90 value <10.0 nM)”. In the assay with IL6 [2], the Dmax is under 70% and the IC50 is under 0.01 µM.
`CC(C)Oc1cc2c(cc1NC(=O)c1cnn3cccnc13)CN([C@H]1CC[C@H](N3CC4(CN(c5ccc6c(c5)C(=O)N(C5CCC(=O)NC5=O)C6=O)C4)C3)CC1)C2=O` (some centres unmarked) [Example 366]: in the assay with IL6 [1], the Dmax was at least 90% and the half-maximal inhibitory concentration (IC50) was under 0.01 µM. Also, on IRAK-4, the DC50 was 0.001 to 0.005 µM, the Dmax was at least 90% and the “PBMC DC90” value is “A (A represents a DC90 value <10.0 nM)”. Also, in the assay on IL6 [2], the Dmax lay in the range of 80 to 90% and the IC50 is under 0.01 µM.
Turning to `O=C1CCC(N2Cc3c(cccc3N3CC4(CCCN(C5CCC(n6cc7cc(NC(=O)c8cnn9cccnc89)c(OCC8CC8)cc7n6)CC5)C4)C3)C2=O)C(=O)N1` (centres unmarked) [Example 367], in the assay with IL6 [1], the Dmax was at least 90% and the IC50 was in the range of 0.01 to 0.05 µM. On IRAK-4, the DC50 is at least 0.01 µM, the Dmax is 80 to 90% and the “PBMC DC90” value is listed as “D (D represents a DC90 value ≥50 nM)”. In the assay on IL6 [2], the Dmax was 80 to 90% and the IC50 lay within 0.01 to 0.05 µM.
With `CN(C1CN(c2ccc(C(=O)NC3CCC(=O)NC3=O)c(F)c2)C1)[C@H]1CC[C@H](n2cc3cc(NC(=O)c4cnn5cccnc45)c(OCC4CC4)cc3n2)CC1` (some centres unmarked) [Example 368], in the assay on IL6 [1], the Dmax is at least 90% and the IC50 was in the range of 0.01 to 0.05 µM. In addition, on IRAK-4, the 50% degradation concentration (DC50) lay in the range of 0.001 to 0.005 µM, the Dmax was at least 90% and the “PBMC DC90” value is “A (A represents a DC90 value <10.0 nM)”. Further, in the assay on IL6 [2], the Dmax lay in the range of 70 to 80% and the half-maximal inhibitory concentration (IC50) was 0.01 to 0.05 µM.
For the compound `CCN(C1CN(c2ccc(C(=O)NC3CCC(=O)NC3=O)c(F)c2)C1)[C@H]1CC[C@H](n2cc3cc(NC(=O)c4cnn5cccnc45)c(OCC4CC4)cc3n2)CC1` (some centres unmarked) [Example 369], in the assay on IL6 [1], the Dmax was at least 90% and the IC50 is 0.01 to 0.05 µM. At IRAK-4, the half-maximal degradation concentration (DC50) lay in the range of 0.001 to 0.005 µM, the Dmax is at least 90% and the “PBMC DC90” value is given as “A (A represents a DC90 value <10.0 nM)”. In the assay with IL6 [2], the Dmax was under 70% and the half-inhibitory concentration (IC50) is 0.01 to 0.05 µM.
For `CN(C1CN(c2ccc3c(c2)CN(C2CCC(=O)NC2=O)C3=O)C1)[C@H]1CC[C@H](N2Cc3cc(NC(=O)c4cnn5cccnc45)c(N4CCC(N5CCC5)CC4)cc3C2=O)CC1` (some centres unmarked) [Example 370], in the assay with IL6 [1], the Dmax is at least 90% and the IC50 was under 0.01 µM. Moreover, on IRAK-4, the DC50 lay in the range of 0.001 to 0.005 µM, the Dmax was at least 90% and the “PBMC DC90” value is “A (A represents a DC90 value <10.0 nM)”. In the assay on IL6 [2], the Dmax is at least 90% and the concentration for half-maximal inhibition (IC50) was under 0.01 µM.
`CN(C1CCN(c2ccc3c(c2)C(=O)N(C2CCC(=O)NC2=O)C3=O)CC1)[C@H]1CC[C@H](N2Cc3cc(NC(=O)c4cnn5cccnc45)c(N4CCN(CC(F)F)CC4)cc3C2=O)CC1` (some centres unmarked) [Example 371]: in the assay on IL6 [1], the Dmax is at least 90% and the IC50 lay in the range of 0.01 to 0.05 µM. At IRAK-4, the DC50 is under 0.001 µM; the Dmax is at least 90%; the “PBMC DC90” value is “B (B represents a DC90 value ≥10.0 nM and <25.0 nM)”. In the assay on IL6 [2], the Dmax lay within 70 to 80% and the IC50 was in the range of 0.01 to 0.05 µM.
`CN([C@H]1CC[C@H](n2cc3cc(NC(=O)c4cnn5cccnc45)c(OCC4CC4)cc3n2)CC1)[C@H]1C[C@H](Oc2ccc3c(c2)C(=O)N(C2CCC(=O)NC2=O)C3=O)C1` (some centres unmarked) [Example 372]: in the assay on IL6 [1], the Dmax is at least 90% and the 50% inhibitory concentration (IC50) fell in the range of 0.01 to 0.05 µM. At IRAK-4, the half-maximal degradation concentration (DC50) was under 0.001 µM, the Dmax was at least 90% and the “PBMC DC90” value is “A (A represents a DC90 value <10.0 nM)”. In the assay with IL6 [2], the Dmax was in the range of 80 to 90% and the IC50 was under 0.01 µM.
`CCN([C@H]1CC[C@H](n2cc3cc(NC(=O)c4cnn5cccnc45)c(OCC4CC4)cc3n2)CC1)[C@H]1C[C@H](Oc2ccc3c(c2)C(=O)N(C2CCC(=O)NC2=O)C3=O)C1` (some centres unmarked) [Example 373]: in the assay on IL6 [1], the Dmax lay within 80 to 90% and the IC50 is 0.01 to 0.05 µM. Further, at IRAK-4, the DC50 was under 0.001 µM, the Dmax is at least 90% and the “PBMC DC90” value is “A (A represents a DC90 value <10.0 nM)”. Also, in the assay on IL6 [2], the Dmax fell in the range of 70 to 80% and the half-maximal inhibitory concentration (IC50) lay within 0.01 to 0.05 µM.
As for `O=C1CCC(N2C(=O)c3ccc(O[C@H]4C[C@H](N[C@H]5CC[C@H](n6cc7cc(NC(=O)c8cnn9cccnc89)c(OCC8CC8)cc7n6)CC5)C4)cc3C2=O)C(=O)N1` (some centres unmarked) [Example 374], in the assay on IL6 [1], the Dmax is at least 90% and the IC50 lay within 0.01 to 0.05 µM. In addition, on IRAK-4, the DC50 is under 0.001 µM; the Dmax is at least 90%; the “PBMC DC90” value is “B (B represents a DC90 value ≥10.0 nM and <25.0 nM)”. In the assay on IL6 [2], the Dmax was in the range of 70 to 80% and the 50% inhibitory concentration (IC50) lay in the range of 0.01 to 0.05 µM.
On to `O=C1CCC(N2C(=O)c3ccc(N4CCN(C[C@H]5CC[C@H](n6cc7cc(NC(=O)c8cnn9cccnc89)c(OCC8CC8)cc7n6)CC5)CC4)cc3C2=O)C(=O)N1` (some centres unmarked) [Example 375], for which, in the assay on IL6 [1], the Dmax was at least 90% and the IC50 fell in the range of 0.01 to 0.05 µM. Further, on IRAK-4, the DC50 lay in the range of 0.001 to 0.005 µM, the Dmax is at least 90% and the “PBMC DC90” value was “A (A represents a DC90 value <10.0 nM)”. In the assay with IL6 [2], the Dmax was 70 to 80% and the IC50 was under 0.01 µM.
In the case of `O=C1CCC(NC(=O)c2ccc(O[C@H]3C[C@H](N[C@H]4CC[C@H](n5cc6cc(NC(=O)c7cnn8cccnc78)c(OCC7CC7)cc6n5)CC4)C3)cc2F)C(=O)N1` (some centres unmarked) [Example 376], in the assay on IL6 [1], the Dmax is at least 90% and the concentration for half-maximal inhibition (IC50) was 0.01 to 0.05 µM. Moreover, on IRAK-4, the DC50 lay in the range of 0.001 to 0.005 µM, the Dmax is at least 90% and the “PBMC DC90” value is recorded as “A (A represents a DC90 value <10.0 nM)”. In the assay with IL6 [2], the Dmax lay within 70 to 80% and the IC50 is 0.01 to 0.05 µM.
`Cn1c(=O)n(C2CCC(=O)NC2=O)c2cccc(N3CC(CN4CCC(n5cc6cc(NC(=O)c7cnn8cccnc78)c(OCC7CC7)cc6n5)CC4)C3)c21` (centres unmarked) [Example 378, N-(6-(cyclopropylmethoxy)-2-(1-((1-(1-(2,6-dioxopiperidin-3-yl)-3-methyl-2-oxo-2,3-dihydro-1H-benzo[d]imidazol-4-yl)azetidin-3-yl)methyl)piperidin-4-yl)-2H-indazol-5-yl)pyrazolo[1,5-a]pyrimidine-3-carboxamide]: in the assay with IL6 [1], the Dmax was at least 90% and the IC50 was under 0.01 µM. At IRAK-4, the 50% degradation concentration (DC50) was under 0.001 µM, the Dmax was at least 90% and the “PBMC DC90” value is reported as “A (A represents a DC90 value <10.0 nM)”. In the assay with IL6 [2], the Dmax was in the range of 80 to 90% and the half-maximal inhibitory concentration (IC50) was under 0.01 µM.
For the compound `CC(C)Oc1cc2c(cc1NC(=O)c1cnn3cccnc13)CN(C1CCN(CC3CN(c4cccc5c4n(C)c(=O)n5C4CCC(=O)NC4=O)C3)CC1)C2=O` (centres unmarked) [Example 381], in the assay with IL6 [1], the Dmax was at least 90% and the IC50 was in the range of 0.01 to 0.05 µM. In addition, at IRAK-4, the DC50 was under 0.001 µM, the Dmax is at least 90% and the “PBMC DC90” value is reported as “A (A represents a DC90 value <10.0 nM)”. Besides, in the assay with IL6 [2], the Dmax was 70 to 80% and the half-inhibitory concentration (IC50) was under 0.01 µM.
